The values that follow are results of earlier work, collected in patent US5702721A (LTS Lohmann Therapie-Systeme GmbH & Co. KG, priority 1989, dated 1997).

The conditions of the data set: supersaturated solution resulting on evaporation of the highly volatile component of a mixture of volatile and non-volatile solvents.

Structures are written as SMILES.

As for `COC(=O)C1=C(C)NC(C)=C(C(=O)OC)C1c1ccccc1[N+](=O)[O-]` [nifedipine], the “skin penetration / resorption intensification” value is recorded as “confirmed these effects”.

In the case of `C[C@]12C=CC(=O)C=C1[C@@H](F)C[C@H]1[C@@H]3C[C@@H](O)[C@](O)(C(=O)CO)[C@@]3(C)C[C@H](O)[C@@]12F` [fluocinolone], the “skin penetration / resorption intensification” value is recorded as “higher skin penetration”.
